The record followed here is patent US8372967B2, “Compounds and methods for modulating expression of GCCR” (Isis Pharmaceuticals, Inc., priority 2006, dated 2013).

Strand notation (5' to 3'): a small letter for the sugar, then the base; units joined by * are phosphorothioate-linked, units joined directly phosphodiester-linked; [ ] holds rarer units or linkages, { } end groups; capitals alone tell only the bases. [PAM-N] = nucleoside carrying a 2'-(butylacetamido)-palmitamide group (palmitic acid C16 conjugate) (N: the base); e = 2'-O-(2-methoxyethyl) (MOE); l = locked nucleic acid (LNA); [5mC] = 5-methylcytosine; d = 2'-deoxy (DNA)

Data set [1] concerns ApoB mRNA. The data set can be described thus: ApoB mRNA level in liver, Balb/c mice dosed i.p. twice per week for three weeks (Table 29); EC50 in liver. The class given is in vivo, mouse. As to conditions: for % ApoB mRNA Level (relative to saline control): liver, Balb/c mice. On the procedure: Prior to quantitative PCR analysis, primer-probe sets specific to the target gene being measured were evaluated for their ability to be “multiplexed” with a GAPDH amplification reaction. After isolation the RNA is subjected to sequential reverse transcriptase (RT) reaction and real-time PCR, both of which are performed in the same well. RT and PCR reagents were obtained from Invitrogen Life Technologies (Carlsbad, Calif.). […] The RT reaction was carried out by incubation for 30 minutes at 48° C. Following a 10 minute incubation at 95° C. to activate the PLATIN 9M® Taq, 40 cycles of a two-step PCR protocol were carried out: 95° C. for 15 seconds (denaturation) followed by 60° C. for 1.5 minutes (annealing/extension).
170 μL of RiboGreen® working reagent (RiboGreen® reagent diluted 1:350 in 10 mM Tris-HCl, 1 mM EDTA, pH 7.5) was pipetted into a 96-well plate containing 30 μL purified cellular RNA. The plate was read in a CytoFluor® 4000 (PE Applied Biosystems) with excitation at 485 nm and emission at 530 nm.
(§1) Antisense compound doses included 2.4, 1.2, 0.6, 0.3 and 0.15 μmol/kg. For antisense compounds 14 nucleotides in length, these doses equate to approximately 12, 6, 3, 1.5 or 0.75 mg/kg, respectively. Shown in Table 25 are the sequences and motifs of the antisense compounds used in this study. […] Bolded residues indicate 2′-O-methoxyethyl moieties and italicized residues indicate methyleneoxy (4′-CH2—O-2′) BNAs. The internucleoside linkages of each compound are phosphorothioate throughout. All cytosine residues of ISIS 147764 and ISIS 372938 are replaced by 5-methyl cytosines. For ISIS 387462, only the cytosine residue in the wing of the compound is replaced by 5-methyl cytosine. ApoB antisense compounds are targeted to publicly available ApoB-100 sequences, including Genbank Accession No. XM—137955.5 (SEQ ID NO: 2).
(§2) Forty-eight hours following the final injection, mice were sacrificed to evaluate transaminases (Table 26); liver and kidney weight (Table 27); triglyceride, LDL, HDL and free fatty acid levels (Table 28); target mRNA level in liver (Table 29); target protein level in plasma; and oligonucleotide tissue concentration (Table 30). These endpoints were determined using methods described herein and well known to those of ordinary skill in the art.
The EC50 for ISIS 387462 in the liver was determined by comparing oligonucleotide concentration in the liver to inhibition of ApoB mRNA.

Data set [2] can be described thus: ALT and AST levels and adverse side effects, ApoB study (Table 26). As to conditions: Balb/c mice, i.p. twice per week for three weeks, 48 h after final injection. The class given is in vivo, mouse. On the procedure: as §1, §2
Data set [3] is described as follows: Liver and kidney weight, body weight, food consumption, glucose, ApoB study (Table 27). It counts as in vivo, mouse. The following applies: Balb/c mice, i.p. twice per week for three weeks. On the procedure: as §1, §2
Glucose levels also were similar among all treatment groups.

Data set [4] is described as follows: Triglyceride, total cholesterol, HDL, LDL and free fatty acid levels, ApoB study (Table 28). The class given is in vivo, mouse. More on the design: Free Fatty Acid (FFA): unit not given here. The following applies: Balb/c mice, i.p. twice per week for three weeks. Here is the method:
as §1, §2

A short description of data set [5]: Full-length and total antisense compound tissue concentration in liver and kidney, ApoB study (Table 30). It counts as in vivo, mouse. The following applies: Balb/c mice, i.p. twice per week for three weeks, 2.4 μmol/kg. On the procedure:
as §1, with “ApoB antisense compounds are targeted to publicly available ApoB-100 sequences, including Genbank Accession No. XM—137955.5 (SEQ ID NO: 2).” left out
as §2
To determine whether the observed increase in efficiency with the methyleneoxy (4′-CH2—O-2′) BNA gapmer is due to an increase in oligonucleotide accumulation, full-length and total oligonucleotide concentration in the liver and kidney were determined.

The subject of data set [6] is PTEN mRNA. The data set can be described thus: PTEN mRNA levels in liver, kidney and fat, Balb/c mice, single i.p. 8 μmol/kg (Table 48). The class given is in vivo, mouse. The following applies: 72 h, saline = 100. The text has this:
(§3) Each dose group consisted of four animals. Shown in Table 46 are the sequences and motifs of the PTEN antisense compounds used in this study. Bolded residues indicate 2′-O-methoxyethyl moieties (2′-MOE) and italicized residues indicate Methyleneoxy BNA nucleotides. Each antisense compound comprises phosphorothioate linkages throughout. In addition, the cytosine residues in the gap of ISIS 384073 and in the wings of ISIS 392056, ISIS 392057, ISIS 392061 and ISIS 392063 are replaced with 5-methylcytosines. Antisense compounds target published PTEN nucleic acids, including Genbank Accession No. U92437.1 (SEQ ID
(§4) Mice were sacrificed 72 hours following injection to determine serum transaminase levels (Table 47); liver and spleen weights (Table 47); and PTEN mRNA levels in liver, kidney and fat (Table 48), according to procedures described herein and well know to one of ordinary skill in the art.

Data set [7] in a line: Transaminase levels and organ weights, PTEN study (Table 47). The class given is in vivo, mouse. As to conditions: single i.p. 8 μmol/kg, 72 h.
Source text: as §3, §4

Data set [8] has as its system mouse SGLT2 mRNA. The data set can be described thus: Mouse SGLT2 mRNA in kidney, wing, gap and total length variations (Table 61). The class given is in vivo. On the procedure: ISIS 3707171-10-1 MOE gapmer was used as a template to make sequence related oligos with varying motifs. The antisense compounds were designed to target different regions of the mouse or rat SGLT2 nucleic acid, using published sequences (GenBank accession number U29881.1, incorporated herein as SEQ ID NO: 1575, and GenBank accession number AJ292928.1, incorporated herein as SEQ ID NO: 1576, respectively).
The antisense compounds were analyzed for their effect on mouse SGLT2 mRNA levels. Data are ranges taken from three experiments in which mice were dosed twice per week for three weeks with 2.5, 0.5 or 0.1 umol/kg of the above MOE gapmers given by intraperitoneal injection. Mice were sacrificed 48 hours following last administration and evaluated for SGLT2 levels in kidney. SGLT2 mRNA levels were determined by RT, real-time PCR as described by other examples herein. PCR results were normalized to an internal ISIS control.

Data set [9] concerns rat SGLT2 mRNA. As to the kind of experiment: Rat SGLT2 mRNA in kidney, 1-10-1 and 1-10-2 MOE gapmers, Sprague-Dawley rats (Table 63). It counts as in vivo. An excerpt: 1-10-1 and 1-10-2 MOE gapmer antisense compounds, provided in Table 62, were designed to target different regions of the mouse or rat SGLT2 RNA. All short antisense compounds in Table 62 are chimeric oligonucleotides (“gapmers”) either 12 or 13 nucleotides in length, composed of a central “gap” segment consisting of ten 2′-deoxynucleotides, which are flanked on the 5′ side by a one-nucleoside “wing” and on the 3′ side by a two or one-nucleotide “wing”. […] All cytidine residues are 5-methylcytidines.
The short antisense compounds were analyzed for their effect on rat SGLT2 mRNA levels. Data are ranges taken from three experiments in which Male Sprague-Dawley rats (170-200 g) were dosed twice per week for three weeks with 450, 150 or 50 nmol/kg of either a 1-10-1 or 1-10-2 MOE gapmer given by intraperitoneal injection. Rats were sacrificed 48 hours following last administration and evaluated for SGLT2 mRNA levels in kidney. Target levels were determined by RT, real-time PCR as described by other examples herein. PCR results were normalized to an internal ISIS control.

For data set [10], the system named is mouse SGLT2 mRNA. As to the kind of experiment: Mouse SGLT2 mRNA in kidney, 1-10-1 MOE gapmers, Balb/c mice (Table 65). It counts as in vivo. On the procedure: The short antisense compounds were analyzed for their effect on mouse SGLT2 mRNA levels. Data was taken from three experiments in which Male 6-week old Balb/c mice were dosed twice per week for two weeks with 450, 150, or 50 nmol/kg of one of the above 1-10-1 MOE gapmers given by intraperitoneal injection. Mice were sacrificed 48 hours following last administration and evaluated for SGLT2 mRNA levels in kidney. Target levels were determined by RT, real-time PCR as described by other examples herein. PCR results were normalized to an internal ISIS control.

Data set [11] has as its system rat SGLT2 mRNA. The data set can be described thus: Rat SGLT2 mRNA in kidney, 1-10-1 gapmers, 250 nmol/kg (Table 66). It counts as in vivo. As to conditions: 250 nmol/kg i.p. twice per week for three weeks, Sprague-Dawley rat kidney. Here is the method:
The effect of the above 1-10-1 gapmers (see Table 64 above) on rat SGLT2 mRNA levels. Data are taken from four experiments in which male Sprague-Dawley rats (170-200 g) were dosed twice per week for three weeks with 250 nmol/kg given by intraperitoneal injection. Rats were sacrificed 48 hours following last administration and evaluated for SGLT2 mRNA levels in kidney. Target levels were determined by RT, real-time PCR as described by other examples herein. PCR results were normalized to an internal ISIS control.

The nature of data set [12]: Triglycerides, total cholesterol, HDL-C, LDL-C and adverse effects (Example 30). The class given is in vivo, mouse. Here is the method: 0.4, and 0.16 umol/kg. Each dose group consisted of four animals. A 5-10-5 MOE gapmer was used for a control treatment. Mice were sacrificed approximately 48 hours following the final dose. Liver tissue was collected for RNA isolation, and blood was collected for serum chemistry analyses. ApoB mRNA levels were measured by real-time PCR as described herein. ApoB mRNA levels were normalized to RNA levels as determined by RIBOGREEN, and are presented in Table 95 as percent inhibition relative to ApoB mRNA levels in saline-treated control animals.
At the 2.5 umol/kg dose, ApoB inhibition by the short antisense compounds was greater than observed with a 5-10-5 MOE gapmer at an equivalent dose. […] Triglycerides were reduced at the 2.5 and […] doses of ISIS 387462 and ISIS 391872.

Take “372938 (antisense eG*eG*dT*dA*d[5mC]*dA*dT*dG*dG*dA*dA*dG*eT*e[5mC]) [compound 372938]”: in data set [1] (Table 30, Balb/c mice, 2.4 μmol/kg), the “ApoB mRNA level” value is given as 77 % of saline control. The “% ApoB mRNA Level (relative to saline control)” value is 90.0% in data set [1] (1.2 μmol/kg) and 77.0% in [1] (2.4 μmol/kg). Besides, the AST in data set [2] (0.3 μmol/kg) amounted to 60.0 IU/L; in data set [2] (2.4 μmol/kg), 49.0 IU/L. In addition, the ALT turned out to be 28.0 IU/L in data set [2] (0.6 μmol/kg) and 26.0 IU/L in data set [2] (2.4 μmol/kg). Besides, the “Kidney Weight” value in data set [3] (0.15 μmol/kg) is listed as 98 % of saline control; in [3] (2.4 μmol/kg), 100 % of saline control. Besides, the “Liver Weight” value is listed as 96 % of saline control in data set [3] (0.15 μmol/kg); 91 % of saline control in data set [3] (0.3 μmol/kg); 96 % of saline control in data set [3] (0.6 μmol/kg); 90 % of saline control in [3] (1.2 μmol/kg); 100 % of saline control in [3] (2.4 μmol/kg). The figures for the LDL in data set [4] (0.3 μmol/kg) and in data set [4] (1.2 μmol/kg) were 11.0 mg/dL and 9.5 mg/dL, respectively. Moreover, the “Total Cholesterol (CHOL)” value in [4] (0.6 μmol/kg) is given as 110 mg/dL. In addition, the “Free Fatty Acid (FFA)” value in [4] (1.2 μmol/kg) was 1.70. Also, the HDL in data set [4] (2.4 μmol/kg) turned out to be 79.0 mg/dL. Moreover, the “Kidney Full-Length Antisense Compound Tissue Concentration” value in [5] is 32.0 µM. Besides, in [5], the “Kidney Total Antisense Compound Tissue Concentration” value is 34.0 µM.

Turning to “391172 (antisense lC*lT*dA*dG*dC*dC*dT*dC*dT*dG*dG*dA*lT*lT*lT) [compound 391172]”, in data set [6], the “% PTEN mRNA levels in Kidney” value was found to be 63% and the “% PTEN mRNA levels in Liver” value amounted to 18%. Further, the “Liver Weight” value in data set [7] is listed as 120 % Saline.

Turning to “392061 (antisense l[5mC]*lT*dA*dG*dC*dC*dT*dC*dT*dG*dG*dA*lT*lT) [compound 392061]”, in data set [6], the “% PTEN mRNA levels in Fat” value was found to be 85%, the “% PTEN mRNA levels in Kidney” value stood at 61% and the “% PTEN mRNA levels in Liver” value is reported as 24%. Besides, the ALT in data set [7] amounted to 42.0 IU/L.

For the substance “ISIS 370717: TAGCCACCAACT 1-10-1 MOE gapmer, phosphorothioate, SGLT-2 (sugars from the 5' end e1 d10 e1, all phosphorothioate, methylation of C not given here)”, the “% change in SGLT2 expression relative to saline” value was −55% in data set [8] (0.1 umol/kg i.p. twice per week for three weeks); −70% in [8] (0.5 umol/kg i.p. twice per week for three weeks); −55% in data set [9] (50 nmol/kg i.p. twice per week for three weeks); −70% in [9] (150 nmol/kg i.p. twice per week for three weeks); −70% in data set [9] (450 nmol/kg i.p. twice per week for three weeks); −47.5% in data set [10] (50 nmol/kg i.p. twice per week for two weeks). Besides, the “% change in SGLT2 expression relative to saline” value in [10] (150 nmol/kg i.p. twice per week for two weeks) is given as −55%; in data set [10] (450 nmol/kg i.p. twice per week for two weeks) it was −65%; in data set [11] it was −70%.

For the substance “ISIS 391872: GGTACATGGAAGTC 1-1-10-2 2′-(butylacetomido)-palmitamide Methyleneoxy BNA/Methyleneoxy BNA, Unmodified cytosines in gap, ApoB ([PAM-G]*lG*dT*dA*dC*dA*dT*dG*dG*dA*dA*dG*lT*l[5mC])”, the Triglycerides entry in data set [12] (at the 2.5 and 1.0 mg/kg doses) is given as “reduced”. Also, the “total cholesterol, HDL-C and LDL-C” value in [12] (in a dose-dependent manner) is “markedly reduced”.
